Assays:
estrogen receptor = target: T1, estrogen receptor (Rattus norvegicus, UniProt P06211); test: [3H]estradiol binding to estrogen receptor in rat uterine cytosol; settings: 10 nM [3H]estradiol, extracts rediluted 1:1000, 1-50 μl
T1 sequence (P06211 1-600): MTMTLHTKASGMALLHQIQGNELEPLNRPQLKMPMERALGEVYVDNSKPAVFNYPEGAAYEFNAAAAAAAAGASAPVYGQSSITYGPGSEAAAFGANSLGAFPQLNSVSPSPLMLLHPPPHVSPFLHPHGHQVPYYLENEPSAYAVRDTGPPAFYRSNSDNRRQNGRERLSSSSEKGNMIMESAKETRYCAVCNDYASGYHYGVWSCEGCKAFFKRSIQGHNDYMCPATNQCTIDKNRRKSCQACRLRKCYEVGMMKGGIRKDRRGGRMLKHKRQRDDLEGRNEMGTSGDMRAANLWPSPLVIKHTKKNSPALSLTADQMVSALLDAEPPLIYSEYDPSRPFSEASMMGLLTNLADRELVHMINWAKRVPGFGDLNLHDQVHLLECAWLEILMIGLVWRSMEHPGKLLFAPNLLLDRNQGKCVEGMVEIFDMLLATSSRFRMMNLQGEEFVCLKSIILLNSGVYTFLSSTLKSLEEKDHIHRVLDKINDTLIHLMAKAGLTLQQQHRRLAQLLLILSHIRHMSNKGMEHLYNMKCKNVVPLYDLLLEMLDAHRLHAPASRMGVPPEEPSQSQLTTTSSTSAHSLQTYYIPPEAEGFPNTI

[1] = tested on: MCF-7 (ER+) human breast cancer cells; test: MCF-7 cell proliferation (cell number); assay type: cell-based
Text: An aliquot of the GCCB crude extract was fractionated on a Spice C18 Cartridge (a reverse phase column using aliphatic groups attached to a matrix to form a hydrophobic adsorbent. Rainin Instruments Company). Briefly, a GCCB extract in 20% methanol in water was loaded onto a spice cartridge and the pass through (20% methanol) fraction was collected. The column was sequentially eluted with a solution of water comprising 40%, 60%, and 80% methanol in water. The final elution was with 100% methanol. Each fraction, including the pass through fraction, was collected and dried at 50° C. under nitrogen to remove methanol. The eluate was re-dissolved in 100% ethanol. […] Six days following treatment, cell number was determined by hemocytometer counts and results are expressed as cell number in treated wells relative to ethanol controls (100%) as described (B. M. Markaverich et al., J. Steroid Biochem. 29:71-78, 1988; B. M. Markaverich et al., Cancer Res. 50: 1470-1478, 1990; B. M. Markaverich et al., JBC 263: 7203-7210, 1988; B. M. Markaverich et al., Internat. J. Oncol. 4:1291-1300, 1994).
In a further study, the effects of fractionated GCCB extract on the proliferation of the MCF-7 and MDA-231 human breast cancer cells were analyzed. […] Six days following treatment, cell number (% Control) was determined. […]
Cell number was determined 6 days following treatment. […]

| SMILES | competition for [3H]estradiol binding to estrogen receptor (estrogen receptor) | inhibition of MCF-7 proliferation by antiestrogen alone ([1]; 10 nM, in the absence of estrogen, 6 days) | inhibition at 0.01 µM ([1]; Homo sapiens, MCF7, 144 h, read-out: block of the estradiol-induced stimulation of MCF-7 cell proliferation) [%] |
| --- | --- | --- | --- |
| O=c1c(-c2ccc(O)cc2)coc2cc(O)ccc12 [daidzein] | competitively inhibit | – | – |
| C[C@]12CC[C@@H]3c4ccc(O)cc4C[C@@H](CCCCCCCCC[S+]([O-])CCCC(F)(F)C(F)(F)F)[C@H]3[C@@H]1CC[C@@H]2O (stereo partly drawn) [ICI-182,780] | – | failed to inhibit | > 50 |

From patent publication US6277418A, “Corn extract contraceptive” (Baylor College of Medicine, priority 1999, dated 2001)
